Assay results from patent US11655235B2, “Pyrrolidine and piperidine compounds” (YUHAN CORPORATION, priority 2019, dated 2023).

Assays:
Type in all cases: biochemical
DPP4 = DPP4 (Homo sapiens, UniProt P27487); assay: DPP4 inhibition, fluorogenic substrate H-Gly-Pro-AMC; design: purchased R&D Systems; details: recombinant human DPP4
recombinant human DPP7 = molecular target: T1, recombinant human DPP7 (Homo sapiens, UniProt Q9UHL4); assay: DPP7 inhibition, fluorogenic substrate Lys-Pro-AMC; details: recombinant human DPP7
T1 construct: purchased R&D Systems
Method: (§1) The compounds according to the present technology were evaluated in terms of the inhibitory effect on the activity of dipeptidyl peptidases including FAP by using a substrate producing fluorescent substances upon enzymatic decomposition. The test was conducted at 25° C. to get a final reaction volume of 100 μL in a 96 black well plate. […] Briefly, the test compounds were dissolved in dimethyl sulfoxide (DMSO) at a concentration of 20 mM and then subjected to serial dilution, thereby creating an 8 point curve. As for the control group, a 6 point curve created by serial dilution of Talabostat in the same buffer solution was used. Fluorescence intensity was measured using a microplate reader (Flexstation3, Molecular Devices) under the wavelength condition exciting at 380 nm and reading the emission at 460 nm. The inhibitory effect of the test compounds was measured as a decrease (%) in the signal rate as compared to the control group without any inhibitor. Data was fixed to a logistic model with four variables and IC50 value was calculated using GraphPad Prism program. As for recombinant human DPP4 (R&D Systems), 25 mM tris (pH 8.0) buffer as a buffer solution and H-Gly-Pro-AMC (Bachem) as a substrate were used. As for recombinant human DPP7 (R&D Systems), 25 mM MES (pH 6.0) buffer as a buffer solution and Lys-Pro-AMC (Bachem) as a substrate were used. As for recombinant human DPP8 (PBS Bioscience), as a buffer solution, a 10 mM tris (pH 7.4) buffer comprising 10 mM of magnesium chloride and 0.05% of Tween 20, and Z-Ala-Pro-AMC (BPS Bioscience) as a substrate were used. As for recombinant human DPP9 (R&D Systems), a 25 mM tris (pH 8.0) buffer as a buffer solution and H-Gly-Pro-AMC (Bachem) as a substrate were used. As for recombinant human PREP (R&D System), as a buffer solution, a 25 mM tris (pH 7.5) buffer comprising 250 mM sodium chloride and 2.5 mM DTT (Dithiolthreitol), and Z-Gly-Pro-AMC (Bachem) as a substrate were used. The evaluation was made by using 10 ng of DPP4, PDD7, and PREP, 20 ng of DPP8, and 50 ng of DPP9 based on the final reaction. In the evaluation of DPP4, the test compounds were subjected to serial dilution in a buffer under the condition containing up to 0.1% of DMSO. In the evaluation of DPP7, DPP8, DPP9, and PREP, the test compounds were subjected to serial dilution in each buffer under the condition containing up to 0.5% of DMSO.

Recombinant human FAP [1] = molecular target: T2, Recombinant human FAP (Homo sapiens, UniProt Q12884); assay: FAP FRET assay, FGF21-sequence FRET peptide substrate; details: FRET peptide with human FGF21 sequence, 6 μM, 37° C.
T2 construct: purchased R&D systems
T2 sequence (Q12884 1-760): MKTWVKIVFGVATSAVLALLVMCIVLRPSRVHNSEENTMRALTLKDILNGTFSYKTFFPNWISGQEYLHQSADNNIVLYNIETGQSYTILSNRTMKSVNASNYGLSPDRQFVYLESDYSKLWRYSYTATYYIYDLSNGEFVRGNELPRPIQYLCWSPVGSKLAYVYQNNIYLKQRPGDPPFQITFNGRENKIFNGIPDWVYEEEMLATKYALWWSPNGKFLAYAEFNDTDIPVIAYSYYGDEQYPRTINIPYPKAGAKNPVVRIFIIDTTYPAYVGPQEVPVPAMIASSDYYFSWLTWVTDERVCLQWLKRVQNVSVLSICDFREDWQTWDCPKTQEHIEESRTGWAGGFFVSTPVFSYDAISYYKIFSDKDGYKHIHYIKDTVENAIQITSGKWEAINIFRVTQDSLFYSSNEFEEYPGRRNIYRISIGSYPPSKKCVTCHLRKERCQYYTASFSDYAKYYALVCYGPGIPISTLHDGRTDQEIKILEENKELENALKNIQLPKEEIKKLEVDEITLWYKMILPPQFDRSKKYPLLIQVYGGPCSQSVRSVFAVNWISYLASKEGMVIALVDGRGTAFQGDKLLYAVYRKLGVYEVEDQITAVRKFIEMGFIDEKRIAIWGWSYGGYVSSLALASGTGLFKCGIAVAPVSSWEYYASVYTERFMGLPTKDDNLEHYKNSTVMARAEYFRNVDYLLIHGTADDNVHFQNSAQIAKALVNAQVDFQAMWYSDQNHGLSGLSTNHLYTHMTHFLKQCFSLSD
Procedure, shortened: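 Recombinant human FAP, 10 ng per reaction, in 50 mM HEPES pH 7.2 with 150 mM NaCl, 0.1 mg/ml BSA, 1 mM EDTA; HyLite Fluor 488/QXL 520 FRET peptide of human FGF21 sequence at 6 μM final, ≤0.1% DMSO, 37° C. IC50 from 8-point curves by four-parameter logistic fit.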

recombinant human PREP = molecular target: T3, recombinant human PREP (Homo sapiens, UniProt P48147); assay: PREP inhibition, fluorogenic substrate Z-Gly-Pro-AMC; details: Inhibitory Activity (IC50, nM) PREP, recombinant human PREP
T3 construct: purchased R&D System
T3 sequence (P48147 1-710): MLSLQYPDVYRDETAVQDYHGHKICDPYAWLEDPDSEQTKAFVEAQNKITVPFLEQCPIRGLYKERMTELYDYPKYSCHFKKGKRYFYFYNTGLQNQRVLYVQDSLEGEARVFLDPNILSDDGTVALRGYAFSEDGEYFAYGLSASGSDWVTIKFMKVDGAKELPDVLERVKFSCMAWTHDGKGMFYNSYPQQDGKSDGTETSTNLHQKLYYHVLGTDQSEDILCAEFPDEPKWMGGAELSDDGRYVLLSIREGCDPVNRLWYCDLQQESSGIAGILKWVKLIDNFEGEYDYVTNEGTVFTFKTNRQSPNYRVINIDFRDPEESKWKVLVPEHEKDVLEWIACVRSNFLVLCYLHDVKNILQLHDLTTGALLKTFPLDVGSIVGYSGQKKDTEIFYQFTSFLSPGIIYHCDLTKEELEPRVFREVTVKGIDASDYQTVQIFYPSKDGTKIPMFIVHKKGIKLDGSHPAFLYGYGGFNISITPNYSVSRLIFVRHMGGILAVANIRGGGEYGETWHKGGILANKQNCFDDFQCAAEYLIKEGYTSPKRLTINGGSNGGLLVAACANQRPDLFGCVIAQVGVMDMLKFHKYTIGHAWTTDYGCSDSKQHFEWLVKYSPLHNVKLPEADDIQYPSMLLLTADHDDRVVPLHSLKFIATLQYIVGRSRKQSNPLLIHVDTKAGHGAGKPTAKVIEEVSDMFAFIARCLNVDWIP
Method: as §1

Recombinant human FAP [2] = molecular target: T2, Recombinant human FAP; assay: FAP inhibition, fluorogenic substrate Z-Gly-Pro-AMC; details: recombinant human FAP, substrate Z-Gly-Pro-AMC
Procedure, shortened: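 Recombinant human FAP, 10 ng per reaction, in 50 mM Tris pH 7.5 with 1 M NaCl and 1 mg/ml BSA at 25° C; substrate Z-Gly-Pro-AMC, ≤0.1% DMSO. AMC fluorescence read at ex 380/em 460 nm; % signal-rate decrease vs no-inhibitor control, 8-point curves fitted to a four-parameter logistic for IC50.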

Chain of DPP4 (P27487 whole entry): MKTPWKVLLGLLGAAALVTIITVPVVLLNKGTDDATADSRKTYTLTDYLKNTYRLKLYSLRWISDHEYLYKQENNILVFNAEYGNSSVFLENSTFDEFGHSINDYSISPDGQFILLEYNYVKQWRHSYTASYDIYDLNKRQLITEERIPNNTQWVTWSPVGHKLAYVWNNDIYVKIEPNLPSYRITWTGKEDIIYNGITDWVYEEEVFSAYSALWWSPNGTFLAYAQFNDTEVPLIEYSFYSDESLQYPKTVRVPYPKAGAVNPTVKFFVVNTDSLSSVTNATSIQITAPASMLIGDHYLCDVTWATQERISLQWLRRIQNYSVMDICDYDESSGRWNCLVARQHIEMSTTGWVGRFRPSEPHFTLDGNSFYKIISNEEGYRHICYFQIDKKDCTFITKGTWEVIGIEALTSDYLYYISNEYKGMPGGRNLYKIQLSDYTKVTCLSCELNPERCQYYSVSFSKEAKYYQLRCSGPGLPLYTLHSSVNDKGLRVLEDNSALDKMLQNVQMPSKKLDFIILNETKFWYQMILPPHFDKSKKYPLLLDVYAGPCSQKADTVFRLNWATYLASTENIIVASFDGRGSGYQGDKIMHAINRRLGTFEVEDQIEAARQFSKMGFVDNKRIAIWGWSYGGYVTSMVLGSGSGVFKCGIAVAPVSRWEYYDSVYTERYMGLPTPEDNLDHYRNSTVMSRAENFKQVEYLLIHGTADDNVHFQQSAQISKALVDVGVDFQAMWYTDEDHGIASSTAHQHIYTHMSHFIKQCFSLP

Work on `N#C[C@@H]1CCCN1C(=O)CN1CC[C@@H](Nc2ccc(C(F)(F)F)c3ncccc23)C1` [Example 201, (2S)-1-[2-[(3R)-3-[[8-(trifluoromethyl)-5-quinolyl]amino]pyrrolidin-1-yl]acetyl]pyrrolidine-2-carbonitrile] yielded an IC50 (DPP4) of 26300 nM, an IC50 (recombinant human DPP7) of 3910 nM and an IC50 (Recombinant human FAP [1]) of 1.3 nM. For the same compound, the IC50 (recombinant human PREP) was 9150 nM.
Compound `N#C[C@@H]1CCCN1C(=O)CN1CC[C@H](Nc2cccc3ncc(F)cc23)C1` [Example 234, (2S)-1-[2-[(3S)-3-[(3-fluoro-5-quinolyl)amino]pyrrolidin-1-yl]acetyl]pyrrolidine-2-carbonitrile] has an IC50 (DPP4) of 63600 nM, an IC50 (recombinant human DPP7) of 6080 nM and an IC50 (Recombinant human FAP [2]) of 1.3 nM. The IC50 (Recombinant human FAP [1]) was 1.6 nM.
`COc1ccc(N[C@H]2CCN(CC(=O)N3CCC[C@H]3C#N)C2)c2cccnc12` [Example 243, (2S)-1-[2-[(3S)-3-[(8-methoxy-5-quinolyl)amino]pyrrolidin-1-yl]acetyl]pyrrolidine-2-carbonitrile] gave an IC50 (DPP4) of 16900 nM, an IC50 (recombinant human DPP7) of 3240 nM and an IC50 (Recombinant human FAP [2]) of 2.6 nM. For the same compound, the IC50 (Recombinant human FAP [1]) was 4 nM.
`N#Cc1ccc(N[C@H]2CCN(CC(=O)N3C[C@@H](F)C[C@H]3C#N)C2)c2cccnc12` [Example 267, 5-[[(3S)-1-[2-oxo-2-[(2S,4S)-2-cyano-4-fluoro-pyrrolidin-1-yl]ethyl]pyrrolidin-3-yl]amino]quinoline-8-carbonitrile] showed an IC50 (DPP4) of 2570 nM, an IC50 (recombinant human DPP7) of 3160 nM and an IC50 (Recombinant human FAP [1]) of 1.5 nM. The IC50 (recombinant human PREP) was 835 nM.
`N#C[C@@H]1CCCN1C(=O)CN1CC[C@H](Nc2ccc(C(=O)Nc3ccccc3)c3ncccc23)C1` [Example 287, N-phenyl-5-[[(3S)-1-[2-oxo-2-[(2S)-2-cyanopyrrolidin-1-yl]ethyl]pyrrolidin-3-yl]amino]quinoline-8-carboxamide] was tested, and the IC50 (DPP4) was 7580 nM, the IC50 (recombinant human DPP7) was 904 nM and the IC50 (Recombinant human FAP [1]) was 1.2 nM.
`N#C[C@@H]1C[C@H](F)CN1C(=O)CN1CC[C@H](Nc2ccc(C(=O)Nc3ccccn3)c3ncccc23)C1` [Example 294, N-(2-pyridyl)-5-[[(3S)-1-[2-oxo-2-[(2S,4S)-2-cyano-4-fluoro-pyrrolidin-1-yl]ethyl]pyrrolidin-3-yl]amino]quinoline-8-carboxamide] was tested, and the IC50 (DPP4) was 439 nM, the IC50 (recombinant human DPP7) was 16.6 nM and the IC50 (Recombinant human FAP [1]) was 0.6 nM.
In the case of `N#C[C@@H]1C[C@H](F)CN1C(=O)CN1CCC(Nc2ccc(F)c3ncccc23)CC1` [Example 330, (2S,4S)-4-fluoro-1-[2-[4-[(8-fluoro-5-quinolyl)amino]-1-piperidyl]acetyl]pyrrolidine-2-carbonitrile], the IC50 (DPP4) is reported as 3290 nM, the IC50 (Recombinant human FAP [2]) is reported as 2.8 nM and the IC50 (Recombinant human FAP [1]) is reported as 6.3 nM.
Compound `Cc1ccc(NC2CCN(CC(=O)N3C[C@@H](F)C[C@H]3C#N)CC2)c2cccnc12` [Example 331, (2S,4S)-4-fluoro-1-[2-[4-[(8-methyl-5-quinolyl)amino]-1-piperidyl]acetyl]pyrrolidine-2-carbonitrile] has an IC50 (DPP4) of 5110 nM, an IC50 (Recombinant human FAP [2]) of 3.8 nM and an IC50 (Recombinant human FAP [1]) of 6.5 nM.
In the case of `N#C[C@@H]1C[C@H](F)CN1C(=O)CN1CCC(Nc2ccnc3c(Cl)cccc23)CC1` [Example 344, (2S,4S)-1-[2-[4-[(8-chloro-4-quinolyl)amino]-1-piperidyl]acetyl]-4-fluoro-pyrrolidine-2-carbonitrile], the IC50 (DPP4) is reported as at least 100000 nM, the IC50 (recombinant human DPP7) is reported as 4610 nM and the IC50 (Recombinant human FAP [1]) is reported as 6 nM.
`N#C[C@@H]1C[C@H](F)CN1C(=O)CN1CCC(Nc2cc(C(F)(F)F)c3ncccc3c2)CC1` [Example 377, (2S,4S)-4-fluoro-1-[2-[4-[[8-(trifluoromethyl)-6-quinolyl]amino]-1-piperidyl]acetyl]pyrrolidine-2-carbonitrile] gave an IC50 (DPP4) of 6610 nM, an IC50 (recombinant human DPP7) of 178 nM and an IC50 (Recombinant human FAP [1]) of 12.4 nM. For the same compound, the IC50 (recombinant human PREP) was 1400 nM.
For `N#Cc1ccc2c(OC3CCN(CC(=O)N4C[C@@H](F)C[C@H]4C#N)CC3)cccc2n1` [Example 417, 5-[[1-[2-oxo-2-[(2S,4S)-2-cyano-4-fluoro-pyrrolidin-1-yl]ethyl]-4-piperidyl]oxy]quinoline-2-carbonitrile], the IC50 (DPP4) was 5470 nM, the IC50 (Recombinant human FAP [2]) was 3.3 nM and the IC50 (Recombinant human FAP [1]) was 6.5 nM.
In the case of `N#C[C@@H]1CCCN1C(=O)CN1CCC(Oc2cccc3ncc(F)cc23)CC1` [Example 429, (2S)-1-[2-[4-[(3-fluoro-5-quinolyl)oxy]-1-piperidyl]acetyl]pyrrolidine-2-carbonitrile], the IC50 (DPP4) is reported as 37200 nM, the IC50 (recombinant human DPP7) is reported as 3970 nM and the IC50 (Recombinant human FAP [1]) is reported as 6.9 nM.
`N#C[C@@H]1CCCN1C(=O)CN1CCC(Oc2ccc(Cl)c3ncccc23)CC1` [Example 431, (2S)-1-[2-[4-[(8-chloro-5-quinolyl)oxy]-1-piperidyl]acetyl]pyrrolidine-2-carbonitrile] showed an IC50 (DPP4) of 19300 nM, an IC50 (recombinant human DPP7) of 6340 nM and an IC50 (Recombinant human FAP [1]) of 12.2 nM.
Work on `N#C[C@@H]1C[C@H](F)CN1C(=O)CN1CCC(Oc2ccnc3c(F)cccc23)CC1` [Example 435, (2S,4S)-4-fluoro-1-[2-[4-[(8-fluoro-4-quinolyl)oxy]-1-piperidyl]acetyl]pyrrolidine-2-carbonitrile] yielded an IC50 (DPP4) of 4830 nM, an IC50 (recombinant human DPP7) of 6560 nM and an IC50 (Recombinant human FAP [1]) of 3.2 nM.
